Results on eight compounds are retold here after patent US11952363B2, “Piperazine compounds for the treatment of autoimmune disease” (Hoffmann-La Roche Inc., priority 2018, dated 2024).

pIC50: −log10 of the molar value.

In one series the target is T1, human TLR7 (Homo sapiens, UniProt Q9NYK1).
T1 sequence (Q9NYK1 27-1049): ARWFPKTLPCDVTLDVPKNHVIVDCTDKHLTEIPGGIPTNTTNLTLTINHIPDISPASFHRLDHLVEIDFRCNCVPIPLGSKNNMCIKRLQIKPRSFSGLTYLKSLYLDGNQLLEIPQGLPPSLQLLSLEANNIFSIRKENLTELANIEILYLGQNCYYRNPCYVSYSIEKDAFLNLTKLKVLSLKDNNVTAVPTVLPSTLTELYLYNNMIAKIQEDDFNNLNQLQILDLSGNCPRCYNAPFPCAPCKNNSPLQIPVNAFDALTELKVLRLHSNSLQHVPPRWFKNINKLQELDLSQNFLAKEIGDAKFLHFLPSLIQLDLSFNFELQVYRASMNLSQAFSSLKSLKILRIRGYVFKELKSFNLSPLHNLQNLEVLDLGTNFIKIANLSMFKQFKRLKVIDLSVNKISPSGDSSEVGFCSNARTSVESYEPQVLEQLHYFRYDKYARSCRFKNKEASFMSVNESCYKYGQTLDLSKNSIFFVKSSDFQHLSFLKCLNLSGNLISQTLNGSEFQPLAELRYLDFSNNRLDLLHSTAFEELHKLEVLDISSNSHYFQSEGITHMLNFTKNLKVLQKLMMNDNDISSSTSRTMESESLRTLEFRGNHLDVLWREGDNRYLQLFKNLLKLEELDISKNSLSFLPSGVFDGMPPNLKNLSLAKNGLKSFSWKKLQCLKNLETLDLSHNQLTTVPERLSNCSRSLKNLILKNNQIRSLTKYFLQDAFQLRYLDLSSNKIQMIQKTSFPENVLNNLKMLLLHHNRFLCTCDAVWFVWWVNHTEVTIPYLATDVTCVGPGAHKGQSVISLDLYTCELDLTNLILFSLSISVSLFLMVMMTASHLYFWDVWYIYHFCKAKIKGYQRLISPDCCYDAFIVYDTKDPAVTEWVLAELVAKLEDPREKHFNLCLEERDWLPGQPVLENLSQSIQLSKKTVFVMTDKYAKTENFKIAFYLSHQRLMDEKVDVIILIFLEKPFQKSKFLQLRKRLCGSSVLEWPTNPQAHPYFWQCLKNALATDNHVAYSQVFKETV
The series can be described thus: HEK293-Blue-hTLR-7 cells assay (SEAP reporter, R848 stimulation). The format is cell-based. To be noted: HEK293-Blue-hTLR7 cells, R848 ligand, 20 hrs incubation; read-out: HEK/hTLR7 IC50. Here is the method: The following tests were carried out in order to determine the activity of the compounds of formula (I) in HEK293-Blue-hTLR-7/8/9 cells assay.
A stable HEK293-Blue-hTLR-7 cell line was purchased from InvivoGen (Cat.#: hkb-htlr7, San Diego, California, USA). These cells were originally designed for studying the stimulation of human TLR7 by monitoring the activation of NF-κB. A SEAP (secreted embryonic alkaline phosphatase) reporter gene was placed under the control of the IFN-β minimal promoter fused to five NF-κB and AP-1-binding sites. The SEAP was induced by activating NF-κB and AP-1 via stimulating HEK-Blue hTLR7 cells with TLR7 ligands. Therefore the reporter expression was declined by TLR7 antagonist under the stimulation of a ligand, such as R848 (Resiquimod), for incubation of 20 hrs. The cell culture supernatant SEAP reporter activity was determined using QUANTI-Blue™ kit (Cat.#: rep-qb1, Invivogen, San Diego, Ca, USA) at a wavelength of 640 nm, a detection medium that turns purple or blue in the presence of alkaline phosphatase.
HEK293-Blue-hTLR7 cells were incubated at a density of 250,000˜450,000 cells/mL in a volume of 170 μL in a 96-well plate in Dulbecco's Modified Eagle's medium (DMEM) containing 4.5 g/L glucose, 50 U/mL penicillin, […], […], 2 mM L-glutamine, 10% (v/v) heat-inactivated fetal bovine serum with addition of 20 μL test compound in a serial dilution in the presence of final DMSO at 1% and 10 μL of 20 uM R848 in above DMEM, perform incubation under 37° C. in a CO2 incubator for 20 hrs. Then 20 μL of the supernatant from each well was incubated with […] Quanti-blue substrate solution at 37° C. for 2 hrs and the absorbance was read at 620-655 nm using a spectrophotometer. The signalling pathway that TLR7 activation leads to downstream NF-κB activation has been widely accepted, and therefore similar reporter assay was modified for evaluating TLR7 antagonist.

A short description of series [1]: Human microsomal stability assay. The format is in vitro ADME. To be noted: human liver microsomes 0.5 mg/mL, 1 μM test compound, 37° C., pH 7.4. Here is the method:
Human liver microsomes (Cat.NO.: 452117, Corning, USA) were preincubated with test compound for 10 minutes at 37° C. in 100 mM potassium phosphate buffer, pH 7.4. The reactions were initiated by adding NADPH regenerating system. The final incubation mixtures contained 1 μM test compound, 0.5 mg/mL liver microsomal protein, 1 mM MgCl2, 1 mM NADP, 1 unit/mL isocitric dehydrogenase and 6 mM isocitric acid in 100 mM potassium phosphate buffer, pH 7.4. After incubation times of 0, 3, 6, 9, 15 and 30 minutes at 37° C., 300 μL of cold ACN (including internal standard) was added to 100 μL incubation mixture to terminate the reaction. Following precipitation and centrifugation, 100 uL supernatant will be taken out and added 300 uL water. The amount of compound remaining in the samples was determined by LC-MS/MS. Controls of no NADPH regenerating system at zero and 30 minutes were also prepared and analyzed.
(Microsomes from liver hold many membrane-bound enzymes, among them those of drug oxidation.)

As to `C[C@@H]1CN(c2ccc(C#N)c3ncccc23)C[C@H](C)N1Cc1ccc(N2CC3CNCC(C2)O3)cn1` [Example 8, 5-[(3S,5R)-3,5-Dimethyl-4-[[5-(9-oxa-3,7-diazabicyclo[3.3.1]nonan-3-yl)-2-pyridyl]methyl]piperazin-1-yl]quinoline-8-carbonitrile], at human TLR7, the pIC50 is 7.11. In series [1], the “Clearance of Human microsome” value was determined as 12.4 mL/min/kg.
On to `C[C@@H]1CN(c2ccc(C#N)c3ncccc23)C[C@H](C)N1Cc1ccc(N[C@@H]2CNC[C@@H]2F)cn1` [Example 9, 5-[(3R,5S)-3,5-Dimethyl-4-[[5-[[(3R,4S)-4-fluoropyrrolidin-3-yl]amino]-2-pyridyl]methyl]piperazin-1-yl]quinoline-8-carbonitrile], for which the pIC50 on human TLR7 is 7.29. Also, in series [1], the “Clearance of Human microsome” value is 12.8 mL/min/kg.
Consider `C[C@@H]1CN(c2ccc(C#N)c3ncccc23)C[C@H](C)N1Cc1ccc(N2CCNCC2CO)cc1` (stereo partly drawn) [Example 12, 5-[(3R,5S)-4-[[4-[2-(Hydroxymethyl)piperazin-1-yl]phenyl]methyl]-3,5-dimethyl-piperazin-1-yl]quinoline-8-carbonitrile], for which the pIC50 at human TLR7 is 7.06. Also, the “Clearance of Human microsome” value in series [1] is on record as 10.1 mL/min/kg.
Regarding `C[C@@H]1CN(c2ccc(C#N)c3ncccc23)C[C@H](C)N1CC(=O)N1CCc2cc(N3CCNCC3)ccc2C1` [Example 14, 5-[(3R,5S)-3,5-Dimethyl-4-[2-oxo-2-(6-piperazin-1-yl-3,4-dihyrdo-1H-isoquinolin-2-yl)ethyl]piperazin-1-yl]quinoline-8-carbonitrile], the pIC50 on human TLR7 was 7.10. The “Clearance of Human microsome” value in series [1] was determined as 12.9 mL/min/kg.
As to `C[C@@H]1CN(c2ccc(C#N)c3ncccc23)C[C@H](C)N1CC(=O)N1Cc2ccc(N3CCNCC3)cc2C1` [Example 16, 5-[(3R,5S)-3,5-Dimethyl-4-[2-oxo-2-(5-piperazin-1-ylisoindolin-2-yl)ethyl]piperazin-1-yl]quinoline-8-carbonitrile], the pIC50 on human TLR7 was 7.46. In addition, the “Clearance of Human microsome” value in series [1] came out at 9.4 mL/min/kg.
In the case of `CC1CN(c2ccc(C#N)c3ncccc23)CCN1CC(=O)Nc1ccc(N2CCNCC2)cc1` (stereo not shown) [Example 17, 2-[4-(8-Cyano-5-quinolyl)-2-methyl-piperazin-1-yl]-N-(4-piperazin-1-ylpheny)acetamide], the pIC50 on human TLR7 was 7.06. Moreover, the “Clearance of Human microsome” value in series [1] is 6.9 mL/min/kg.
As to `CC1CN(c2ccc(C#N)c3ncccc23)CCN1CC(=O)Nc1ccc2c(c1)CCNC2` (stereo not shown) [Example 18, 2-[4-(8-Cyano-5-quinolyl)-2-methyl-piperazin-1yl]-N-(1,2,3,4-tetrahydroisoquinolin-6-yl)acetamide], on human TLR7, the pIC50 is 7.22. In addition, the “Clearance of Human microsome” value in series [1] is on record as 6.3 mL/min/kg.
Taken in the same sequence, the figures for `CC1CN(c2ccc(C#N)c3ncccc23)CCN1CC(=O)N1CCC(C2CCN(C)CC2)CC1` (stereo not shown) [Example 19, 5-[3-methyl-4-[2-[4-(1-methyl-4-piperidyl)-1-piperidyl]-2-oxo-ethyl]piperazin-1-yl]quinoline-8-carbonitrile] were 7.24 and 6.7 mL/min/kg.
